test system: RS4;11 cells; test: Cell viability assay (CellTiter-Glo) in RS4;11 cells; format: cell-based; details: Homo sapiens, 72 h; RS4;11 ALL cells treated for three days; read-out: cell viability inhibition IC50
Method in brief: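 Three-day compound treatment of RS4;11 ALL cells (5000/well, 3-fold dilution series of 8 or 12 points), with IC50 from a nonlinear least-squares fit to CellTiter-Glo viability data.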

Row | IC50 [nM] | Structure (SMILES)
1 | < 100 | Cc1cnc(Nc2ccc(N3CCN(C(=O)CCCCCCCNc4ccc5c(c4)C(=O)N(C4CCC(=O)NC4=O)C5=O)CC3)cc2)nc1Nc1cccc(S(=O)(=O)NC(C)(C)C)c1 (stereo not shown) [JA-231, N-(tert-butyl)-3-((2-((4-(4-(8-((2-(2,6-dioxopiperidin-3-yl)-1,3-dioxoisoindolin-5-yl)amino)octanoyl)piperazin-1-yl)phenyl)amino)-5-methylpyrimidin-4-yl)amino)benzenesulfonamide]

same assay, conditions: Homo sapiens, 72 h; RS4;11 cells; cell viability, 3 days, CellTiter-Glo; read-out: IC50

Row | Structure (SMILES) | IC50 [nM]
2 | Cc1ncsc1-c1ccc(CNC(=O)[C@@H]2C[C@@H](O)CN2C(=O)[C@@H](NC(=O)CCOCCOCCOCCOCCNC(=O)CN2CCN(c3ccc(Nc4nc5cccc(-c6ccc(S(C)(=O)=O)cc6)n5n4)cc3)CC2)C(C)(C)C)cc1 [JA-133, (2S,4R)-1-((S)-20-(tert-Butyl)-1-(4-(4-((5-(4-(methylsulfonyl)phenyl)-[1,2,4]triazolo[1,5-a]pyridin-2-yl)amino)phenyl)piperazin-1-yl)-2,18-dioxo-6,9,12,15-tetraoxa-3,19-diazahenicosan-21-oyl)-4-hydroxy-N-(4-(4-methylthiazol-5-yl)benzyl)pyrrolidine-2-carboxamide] | > 10000
3 | Cc1cnc(Nc2ccc(N3CCN(CC(=O)NCCOCC(=O)N[C@H](C(=O)N4C[C@H](O)C[C@H]4C(=O)NCc4ccc(-c5scnc5C)cc4)C(C)(C)C)CC3)cc2)nc1Nc1cccc(S(=O)(=O)NC(C)(C)C)c1 [JA-217, (2S,4R)-1-((S)-2-(2-(2-(2-(4-(4-((4-((3-(N-(tert-butyl)sulfamoyl)phenyl)amino)-5-methylpyrimidin-2-yl)amino)phenyl)piperazin-1-yl)acetamido)ethoxy)acetamido)-3,3-dimethylbutanoyl)-4-hydroxy-N-(4-(4-methylthiazol-5-yl)benzyl)pyrrolidine-2-carboxamide] | 5600
4 | Cc1ncsc1-c1ccc(CNC(=O)[C@@H]2C[C@@H](O)CN2C(=O)[C@@H](NC(=O)CCOCCOCCOCCOCCOCCC(=O)N2CCC(n3cc(-c4cnc5cccc(-c6cc(F)c(CN7CCOCC7)c(F)c6)c5n4)cn3)CC2)C(C)(C)C)cc1 [JA-044, (2S,4R)-1-[(2S)-2-[3-[2-[2-[2-[2-[3-[4-[4-[8-[3,5-Difluoro-4-(morpholinomethyl)phenyl]quinoxalin-2-yl]pyrazol-1-yl]-1-piperidyl]-3-oxo-propoxy]ethoxy]ethoxy]ethoxy]ethoxy]propanoylamino]-3,3-dimethyl-butanoyl]-4-hydroxy-N-[[4-(4-methylthiazol-5-yl)phenyl]methyl]pyrrolidine-2-carboxamide] | > 10000
5 | O=C1CCC(N2C(=O)c3cccc(NCCCCCCC(=O)N4CCC(n5cc(-c6cnc7cccc(-c8cc(F)c(CN9CCOCC9)c(F)c8)c7n6)cn5)CC4)c3C2=O)C(=O)N1 (stereo not shown) [JA-040, 4-[[7-[4-[4-[8-[3,5-Difluoro-4-(morpholinomethyl)phenyl]quinoxalin-2-yl]pyrazol-1-yl]-1-piperidyl]-7-oxo-heptyl]amino]-2-(2,6-dioxo-3-piperidyl)isoindoline-1,3-dione] | > 10000
6 | Cc1ncsc1-c1ccc(CNC(=O)[C@@H]2C[C@@H](O)CN2C(=O)[C@@H](NC(=O)COCCOCCOCCOCCOCC(=O)N2CCN(c3ccc(Nc4nc5cccc(-c6ccc(S(C)(=O)=O)cc6)n5n4)cc3)CC2)C(C)(C)C)cc1 [JA-083, (2S,4R)-1-((S)-2-(tert-Butyl)-20-(4-(4-((5-(4-(methylsulfonyl)phenyl)-[1,2,4]triazolo[1,5-a]pyridin-2-yl)amino)phenyl)piperazin-1-yl)-4,20-dioxo-6,9,12,15,18-pentaoxa-3-azaicosanoyl)-4-hydroxy-N-(4-(4-methylthiazol-5-yl)benzyl)pyrrolidine-2-carboxamide] | > 10000
7 | O=C1CCC(N2C(=O)c3ccc(OCCCCCCN4CCC(n5cc(-c6cnc7cccc(-c8cc(F)c(CN9CCOCC9)c(F)c8)c7n6)cn5)CC4)cc3C2=O)C(=O)N1 (stereo not shown) [JA-267, 5-((6-(4-(4-(8-(3,5-Difluoro-4-(morpholinomethyl)phenyl)quinoxalin-2-yl)-1H-pyrazol-1-yl)piperidin-1-yl)hexyl)oxy)-2-(2,6-dioxopiperidin-3-yl)isoindoline-1,3-dione] | 426
8 | Cc1cnc(Nc2ccc(N3CCN(C(=O)CCCCNc4ccc5c(c4)C(=O)N(C4CCC(=O)NC4=O)C5=O)CC3)cc2)nc1Nc1cccc(S(=O)(=O)NC(C)(C)C)c1 (stereo not shown) [JA-228, N-(tert-butyl)-3-((2-((4-(4-(5-((2-(2,6-dioxopiperidin-3-yl)-1,3-dioxoisoindolin-5-yl)amino)pentanoyl)piperazin-1-yl)phenyl)amino)-5-methylpyrimidin-4-yl)amino)benzenesulfonamide] | 2010
9 | CS(=O)(=O)c1ccc(-c2cccc3nc(Nc4ccc(N5CCN(C(=O)CCCCCOc6ccc7c(c6)C(=O)N(C6CCC(=O)NC6=O)C7)CC5)cc4)nn23)cc1 (stereo not shown) [JA-277, 3-(6-((6-(4-(4-((5-(4-(Methylsulfonyl)phenyl)-[1,2,4]triazolo[1,5-a]pyridin-2-yl)amino)phenyl)piperazin-1-yl)-6-oxohexyl)oxy)-1-oxoisoindolin-2-yl)piperidine-2,6-dione] | 447
10 | CS(=O)(=O)c1ccc(-c2cccc3nc(Nc4ccc(N5CCN(C(=O)CCCCCCc6ccc7c(c6)CN(C6CCC(=O)NC6=O)C7=O)CC5)cc4)nn23)cc1 (stereo not shown) [JA-251, 3-(5-(7-(4-(4-((5-(4-(Methylsulfonyl)phenyl)-[1,2,4]triazolo[1,5-a]pyridin-2-yl)amino)phenyl)piperazin-1-yl)-7-oxoheptyl)-1-oxoisoindolin-2-yl)piperidine-2,6-dione] | 337
11 | Cc1ncsc1-c1ccc(CNC(=O)[C@@H]2C[C@@H](O)CN2C(=O)[C@@H](NC(=O)COCCOCC(=O)N2CCN(c3ccc(Nc4nc5cccc(-c6ccc(S(C)(=O)=O)cc6)n5n4)cc3)CC2)C(C)(C)C)cc1 [JA-073, (2S,4R)-1-((S)-3,3-Dimethyl-2-(2-(2-(2-(4-(4-((5-(4-(methylsulfonyl)phenyl)-[1,2,4]triazolo[1,5-a]pyridin-2-yl)amino)phenyl)piperazin-1-yl)-2-oxoethoxy)ethoxy)acetamido)butanoyl)-4-hydroxy-N-(4-(4-methylthiazol-5-yl)benzyl)pyrrolidine-2-carboxamide] | 4590
12 | Cc1ncsc1-c1ccc(CNC(=O)[C@@H]2C[C@@H](O)CN2C(=O)[C@@H](NC(=O)CCOCCOCCOCCOCCOCCNC(=O)CN2CCC(n3cc(-c4cnc5cccc(-c6cc(F)c(CN7CCOCC7)c(F)c6)c5n4)cn3)CC2)C(C)(C)C)cc1 [JA-159, (2S,4R)-1-((S)-23-(tert-Butyl)-1-(4-(4-(8-(3,5-difluoro-4-(morpholinomethyl)phenyl)quinoxalin-2-yl)-1H-pyrazol-1-yl)piperidin-1-yl)-2,21-dioxo-6,9,12,15,18-pentaoxa-3,22-diazatetracosan-24-oyl)-4-hydroxy-N-(4-(4-methylthiazol-5-yl)benzyl)pyrrolidine-2-carboxamide] | > 10000
13 | Cc1ncsc1-c1ccc(CNC(=O)[C@@H]2C[C@@H](O)CN2C(=O)[C@@H](NC(=O)CCC(=O)N2CCC(n3cc(-c4cnc5cccc(-c6cc(F)c(CN7CCOCC7)c(F)c6)c5n4)cn3)CC2)C(C)(C)C)cc1 [JA-060, (2S,4R)-1-[(2S)-2-[[4-[4-[4-[8-[3,5-Difluoro-4-(morpholinomethyl)phenyl]quinoxalin-2-yl]pyrazol-1-yl]-1-piperidyl]-4-oxo-butanoyl]amino]-3,3-dimethyl-butanoyl]-4-hydroxy-N-[[4-(4-methylthiazol-5-yl)phenyl]methyl]pyrrolidine-2-carboxamide] | > 10000
14 | CS(=O)(=O)c1ccc(-c2cccc3nc(Nc4ccc(N5CCN(C(=O)CCOCCOCCNc6cccc7c6C(=O)N(C6CCC(=O)NC6=O)C7=O)CC5)cc4)nn23)cc1 (stereo not shown) [JA-075, 2-(2,6-Dioxopiperidin-3-yl)-4-((2-(2-(3-(4-(4-((5-(4-(methylsulfonyl)phenyl)-[1,2,4]triazolo[1,5-a]pyridin-2-yl)amino)phenyl)piperazin-1-yl)-3-oxopropoxy)ethoxy)ethyl)amino)isoindoline-1,3-dione] | 2430

Continued, values first:

Row | IC50 [nM] | Structure (SMILES)
15 | 80.2 | Cc1cnc(Nc2ccc(N3CCN(C(=O)CCCCCCCNc4ccc5c(c4)C(=O)N(C4CCC(=O)NC4=O)C5=O)CC3)cc2)nc1Nc1cccc(S(=O)(=O)NC(C)(C)C)c1 (stereo not shown) [JA-231, N-(tert-butyl)-3-((2-((4-(4-(8-((2-(2,6-dioxopiperidin-3-yl)-1,3-dioxoisoindolin-5-yl)amino)octanoyl)piperazin-1-yl)phenyl)amino)-5-methylpyrimidin-4-yl)amino)benzenesulfonamide]
16 | 301 | O=C1CCC(N2C(=O)c3ccc(NCCCCCCN4CCC(n5cc(-c6cnc7cccc(-c8cc(F)c(CN9CCOCC9)c(F)c8)c7n6)cn5)CC4)cc3C2=O)C(=O)N1 (stereo not shown) [JA-266, 5-((6-(4-(4-(8-(3,5-Difluoro-4-(morpholinomethyl)phenyl)quinoxalin-2-yl)-1H-pyrazol-1-yl)piperidin-1-yl)hexyl)amino)-2-(2,6-dioxopiperidin-3-yl)isoindoline-1,3-dione]
17 | 259 | CS(=O)(=O)c1ccc(-c2cccc3nc(Nc4ccc(N5CCN(C(=O)CCCCCOc6ccc7c(c6)C(=O)N(C6CCC(=O)NC6=O)C7=O)CC5)cc4)nn23)cc1 (stereo not shown) [JA-255, 2-(2,6-Dioxopiperidin-3-yl)-5-((6-(4-(4-((5-(4-(methylsulfonyl)phenyl)-[1,2,4]triazolo[1,5-a]pyridin-2-yl)amino)phenyl)piperazin-1-yl)-6-oxohexyl)oxy)isoindoline-1,3-dione]
18 | > 10000 | Cc1ncsc1-c1ccc(CNC(=O)[C@@H]2C[C@@H](O)CN2C(=O)[C@@H](NC(=O)CCNC(=O)CN2CCC(n3cc(-c4cnc5cccc(-c6cc(F)c(CN7CCOCC7)c(F)c6)c5n4)cn3)CC2)C(C)(C)C)cc1 [JA-155, (2S,4R)-1-((S)-2-(3-(2-(4-(4-(8-(3,5-Difluoro-4-(morpholinomethyl)phenyl)quinoxalin-2-yl)-1H-pyrazol-1-yl)piperidin-1-yl)acetamido)propanamido)-3,3-dimethylbutanoyl)-4-hydroxy-N-(4-(4-methylthiazol-5-yl)benzyl)pyrrolidine-2-carboxamide]
19 | > 10000 | CS(=O)(=O)c1ccc(-c2cccc3nc(Nc4ccc(N5CCN(CC(=O)NCCOCCNc6ccc7c(c6)C(=O)N(C6CCC(=O)NC6=O)C7=O)CC5)cc4)nn23)cc1 (stereo not shown) [JA-212, N-(2-(2-((2-(2,6-Dioxopiperidin-3-yl)-1,3-dioxoisoindolin-5-yl)amino)ethoxy)ethyl)-2-(4-(4-((5-(4-(methylsulfonyl)phenyl)-[1,2,4]triazolo[1,5-a]pyridin-2-yl)amino)phenyl)piperazin-1-yl)acetamide]

— US20230093099A1, “COMPOUNDS AND METHODS OF TREATING CANCERS” (CULLGEN (SHANGHAI), INC., priority 2019, published 2023)
